Measurements taken from ChEMBL document CHEMBL3808336, “Pyrazolylbenzo[d]imidazoles as new potent and selective inhibitors of carbonic anhydrase isoforms hCA IX and XII” (Bioorg Med Chem, 2016).
pKi: −log10 of the molar value.

Legend:
[1] = target: Carbonic anhydrase 9 (Homo sapiens, UniProt Q16790); test: Inhibition of recombinant human carbonic anhydrase 9 preincubated for 15 min to 72 hrs by stopped flow CO2 hydrase assay
[2] = target: Carbonic anhydrase 2 (Homo sapiens, UniProt P00918); test: Inhibition of recombinant human carbonic anhydrase 2 preincubated for 15 min to 72 hrs by stopped flow CO2 hydrase assay
[3] = target: Carbonic anhydrase 1 (Homo sapiens, UniProt P00915); test: Inhibition of recombinant human carbonic anhydrase 1 preincubated for 15 min to 72 hrs by stopped flow CO2 hydrase assay
Sequence of Carbonic anhydrase 1 (P00915 whole entry): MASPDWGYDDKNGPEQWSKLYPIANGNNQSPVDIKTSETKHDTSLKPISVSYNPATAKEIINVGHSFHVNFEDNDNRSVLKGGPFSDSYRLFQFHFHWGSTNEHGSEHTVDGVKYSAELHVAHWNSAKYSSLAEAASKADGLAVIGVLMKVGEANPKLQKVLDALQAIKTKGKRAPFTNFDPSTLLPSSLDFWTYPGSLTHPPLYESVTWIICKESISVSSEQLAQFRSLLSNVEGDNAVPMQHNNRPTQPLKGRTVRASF

Row | Structure (SMILES) | pKi [1] | pKi [2] | pKi [3]
1 | c1ccc(-c2nn(-c3ccccc3)cc2-c2nc3ccccc3[nH]2)cc1 | 7.25 | < 4.40 | < 4.40
2 | Fc1ccc(-c2nn(-c3ccccc3)cc2-c2nc3ccccc3[nH]2)cc1 | – | < 4.40 | < 4.40
3 | NS(=O)(=O)c1ccc(-n2cc(-c3nc4ccccc4[nH]3)c(-c3ccc(Cl)cc3)n2)cc1 | 7.15 | – | –
4 | NS(=O)(=O)c1ccc(-n2cc(-c3nc4ccccc4[nH]3)c(-c3ccc(F)cc3)n2)cc1 | 7.13 | – | –
5 | NS(=O)(=O)c1ccc(-n2cc(-c3nc4ccccc4[nH]3)c(-c3ccc(Br)cc3)n2)cc1 | 6.19 | – | –
6 | Brc1ccc(-c2nn(-c3ccccc3)cc2-c2nc3ccccc3[nH]2)cc1 | 7.26 | < 4.40 | –
7 | COc1ccc(-c2nn(-c3ccc(S(N)(=O)=O)cc3)cc2-c2nc3ccccc3[nH]2)cc1 | 6.26 | – | –

Results, then the compound that gave them:

Row | pKi [1] | pKi [2] | pKi [3] | Structure (SMILES)
8 | 8.12 | < 4.40 | < 4.40 | Clc1ccc(-c2nn(-c3ccccc3)cc2-c2nc3ccccc3[nH]2)cc1
9 | 7.31 | < 4.40 | < 4.40 | COc1ccc(-c2nn(-c3ccccc3)cc2-c2nc3ccccc3[nH]2)cc1
10 | 7.60 | – | – | NS(=O)(=O)c1ccc(-n2cc(-c3nc4ccccc4[nH]3)c(-c3ccccc3)n2)cc1
11 | 7.63 | < 4.40 | < 4.40 | Cc1ccc(-c2nn(-c3ccccc3)cc2-c2nc3ccccc3[nH]2)cc1
